Results on 5 compounds are retold here after ChEMBL document CHEMBL1201862, “PubChem BioAssay data set” (2004).

Test systems include RXF 393; HT-29; SNB-19; OVCAR-8; NCI-H23; SF-295; 786-0; NCI-H226; CAKI-1; SK-MEL-5; OVCAR-4; OVCAR-3; HCT-116; IGROV-1; CCRF-CEM; SK-MEL-28; MOLT-4; K562; HL-60.
Holding throughout (assay): DTP human tumour cell line panel, 48 h

Molecules are shown by their SMILES.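 Step 1: Grow cells in 96-well plates. Step 2: Expose to compound for 48 hours at 5 concentrations. Step 3: Interpolate endpoints linearly; if unreached, use highest concentration. At the GI50, growth is halved.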 Calls of active or inactive are those of the source. Rule as the data show it: active = GI50 up to about 1.1 µM and inactive = higher.

As usually defined, the GI50 is the concentration at which growth is held to half of that of the control. Regarding `O=C(CC1(O)CCCCC1)OC1CCCC1`, the GI50 in the test on RXF 393, in the test on HT-29, in the test on SNB-19, with OVCAR-8, in the test on NCI-H23 and in the test on SF-295 was > 100 µM (inactive) each time. The GI50 with 786-0, in the test with NCI-H226, in the test on CAKI-1, in the test with SK-MEL-5, in the test on OVCAR-4 and in the test with OVCAR-3 was > 100 µM (inactive) in each case. Also, the GI50 in the test with HCT-116 and in the test with IGROV-1 was > 100 µM (inactive) each time.
For the compound `Nc1ccc(C(=O)N/C(=C\C=C\c2ccco2)c2nc3c4c(ccc3[nH]2)C(=O)c2ccccc2C4=O)cc1`, the GI50 is 25.2 µM (inactive) with RXF 393; 49.7 µM (inactive) with HT-29; 1.09 µM (active) with CCRF-CEM; 39.7 µM (inactive) in the test with SNB-19; 32.2 µM (inactive) with OVCAR-8; 41.5 µM (inactive) with NCI-H23. Also, the GI50 with SF-295 is 31.7 µM (inactive); in the test with 786-0, 30.3 µM (inactive); in the test with SK-MEL-28, 36.6 µM (inactive); in the test on MOLT-4, 3.67 µM (inactive); with CAKI-1, 24.6 µM (inactive); in the test on SK-MEL-5 it was 38 µM (inactive). Also, the GI50 is 52.4 µM (inactive) with OVCAR-4; 32.9 µM (inactive) in the test on OVCAR-3; 26.8 µM (inactive) in the test on K562; 24.8 µM (inactive) in the test on HCT-116; 21.4 µM (inactive) with IGROV-1.
Turning to `N#CC1=CNc2sccc2S1(=O)=O`, the GI50 in the test on HT-29, in the test on SNB-19, with OVCAR-8, with NCI-H23, with SF-295 and in the test with 786-0 was > 100 µM (inactive) throughout. Further, the GI50 in the test with NCI-H226 was > 100 µM (inactive); in the test on SK-MEL-28 it was > 100 µM (inactive); with MOLT-4, 39.6 µM (inactive); with CAKI-1 it was > 100 µM (inactive); in the test with SK-MEL-5 it was 76.4 µM (inactive); in the test with OVCAR-4, > 100 µM (inactive). Further, the GI50 in the test on OVCAR-3 was > 100 µM (inactive); in the test on HCT-116, 89.7 µM (inactive); in the test on IGROV-1, > 100 µM (inactive).
For the compound `Cc1cc2[nH]c3c(C#N)c(-c4ccccc4)c(CN4CCOCC4)c(=O)n3c2cc1C`, the GI50 in the test on RXF 393, in the test on CCRF-CEM, in the test with SNB-19, in the test on OVCAR-8, in the test on NCI-H23 and in the test on SF-295 was > 100 µM (inactive) each time. Further, the GI50 in the test on 786-0, in the test on NCI-H226, in the test on SK-MEL-28, in the test with CAKI-1, in the test with OVCAR-4 and with OVCAR-3 was > 100 µM (inactive) each time. The GI50 in the test on HCT-116 is > 100 µM (inactive).
On to `c1ccc(C2=NN(c3ccccc3)C3(S2)SC(c2ccccc2)(c2ccccc2)c2ccccc23)cc1` (configuration not stated), for which the GI50 with HT-29, in the test on CCRF-CEM, with SNB-19, with OVCAR-8, in the test with NCI-H23 and in the test with SF-295 was > 100 µM (inactive) in each case. In addition, the GI50 in the test with 786-0 is > 100 µM (inactive); in the test on NCI-H226, > 100 µM (inactive); in the test with SK-MEL-28 it was > 100 µM (inactive); in the test on HL-60, 0.804 µM (active); in the test with MOLT-4, > 100 µM (inactive); with CAKI-1, > 100 µM (inactive). Further, the GI50 in the test with SK-MEL-5, in the test with OVCAR-4, in the test on OVCAR-3, with K562, in the test with HCT-116 and with IGROV-1 was > 100 µM (inactive) throughout.
